Laboratory results: US9107410B2, “Pesticidal compositions and processes related thereto” (Dow AgroSciences LLC, priority 2011, dated 2015)
Like-named read-outs stand apart in the source and are kept apart here.

Experiments:
Type in all cases: in vivo
[1] = system: Green Peach Aphid (GPA) (Myzus persicae); experiment: Bioassay on green peach aphid (GPA), foliar spray on cabbage seedlings; details: 72 h, read-out: % Mortality GPA 200 ppm
Procedure: Certain molecules disclosed in this document were tested against GPA using procedures described in the following example. In the reporting of the results, the “GPA Rating Table” was used (See Table Section).
Cabbage seedlings grown in 3-inch pots, with 2-3 small (3-5 cm) true leaves, were used as test substrate. The seedlings were infested with 20-50 GPA (wingless adult and nymph stages) one day prior to chemical application. Four pots with individual seedlings were used for each treatment. Test compounds (2 mg) were dissolved in 2 mL of acetone/methanol (1:1) solvent, forming stock solutions of 1000 ppm test compound. The stock solutions were diluted 5× with 0.025% Tween 20 in H2O to obtain the solution at 200 ppm test compound. A hand-held aspirator-type sprayer was used for spraying a solution to both sides of […] leaves until runoff. Reference plants (solvent check) were sprayed with the diluent only containing 20% by volume of acetone/methanol (1:1) solvent. Treated plants were held in a holding room for three days at approximately 25° C. and ambient relative humidity (RH) prior to grading. Evaluation was conducted by counting the number of live aphids per plant under a microscope. Percent Control was measured by using Abbott's correction formula (W. S. Abbott, “A Method of Computing the Effectiveness of an Insecticide” J. Econ. Entomol. 18 (1925), pp. 265-267) as follows. Corrected % Control=100*(X−Y)/X • where • X=No. of live aphids on solvent check plants and • Y=No. of live aphids on treated plants

[2] = system: Beet Armyworm (BAW) (Spodoptera exigua); experiment: Bioassay on beet armyworm (BAW), 128-well diet tray assay; details: 168 h, read-out: % Mortality BAW 50 μg/cm^2
Procedure: (§1) Certain molecules disclosed in this document were tested against BAW and CEW using procedures described in the following examples. In the reporting of the results, the “BAW & CEW Rating Table” was used (See Table Section).
Bioassays on BAW (Spodoptera exigua)
Bioassays on BAW were conducted using a 128-well diet tray assay. One to five second instar BAW larvae were placed in each well (3 mL) of the diet tray that had been previously filled with 1 mL of artificial diet to which 50 μg/cm^2 of the test compound (dissolved in 50 μL of 90:10 acetone-water mixture) had been applied (to each of eight wells) and then allowed to dry. Trays were covered with a clear self-adhesive cover, and held at 25° C., 14:10 light-dark for five to seven days. Percent mortality was recorded for the larvae in each well; activity in the eight wells was then averaged. The results are indicated in the table entitled “Table: Bio Results” (See Table Section).

[3] = system: Corn Earworm (CEW) (Helicoverpa zea); experiment: Bioassay on corn earworm (CEW), 128-well diet tray assay; details: 168 h, read-out: % Mortality CEW 50 μg/cm^2
Procedure: as §1
Bioassays on CEW (Helicoverpa zea)
Bioassays on CEW were conducted using a 128-well diet tray assay. One to five second instar CEW larvae were placed in each well (3 mL) of the diet tray that had been previously filled with 1 mL of artificial diet to which 50 μg/cm^2 of the test compound (dissolved in 50 μL of 90:10 acetone-water mixture) had been applied (to each of eight wells) and then allowed to dry. Trays were covered with a clear self-adhesive cover, and held at 25° C., 14:10 light-dark for five to seven days. Percent mortality was recorded for the larvae in each well; activity in the eight wells was then averaged. The results are indicated in the table entitled “Table: Bio Results” (See Table Section).

[4] = 200 ppm foliar spray on cabbage seedlings, graded after three days, Abbott corrected % control
[5] = 50 μg/cm^2 on artificial diet, second instar larvae, 25° C., five to seven days, average of eight wells

SMILES | mortality at 200 ppm [1, 4] [%] | mortality at 50 µg/cm2 [2, 5] [%] | mortality at 50 µg/cm2 [3, 5] [%] | mortality at 200 ppm ([1]; foliar) [%] | mortality at 50 µg/cm2 [2] [%] | mortality at 50 µg/cm2 [3] [%]
O=C(Nc1c(Cl)cccc1Cl)NC1CC1c1ccc(-c2ncn(-c3ccc(OC(F)(F)F)cc3)n2)cc1 (centres unmarked) [Compound 31, 1-(2,6-Dichlorophenyl)-3-(2-(4-(1-(4-(trifluoromethoxy)phenyl)-1H-1,2,4-triazol-3-yl)phenyl)cyclopropyl)urea] | 0 | 0 | 0 | – | – | –
FC(F)(F)Oc1ccc(-n2cnc(-c3ccc(C4CC4NC(=S)Nc4ccccc4)cc3)n2)cc1 (centres unmarked) [Compound 1, 1-phenyl-3-(2-{4-[1-(4-trifluoromethoxyphenyl)-1H-[1,2,4]triazol-3-yl]phenyl}cyclopropyl)thiourea] | 0 | 50 to 100 | 50 to 100 | – | – | –
COc1ccc(OC(=O)NC2CC2c2ccc(-c3ncn(-c4ccc(OC(F)(F)F)cc4)n3)cc2)cc1 (centres unmarked) [Compound 27, 4-Methoxyphenyl 2-(4-(1-(4-(trifluoromethoxy)phenyl)-1H-1,2,4-triazol-3-yl)phenyl)-cyclopropylcarbamate] | – | – | – | 0 | 0 to 50 | 50 to 100
Cc1cccc(C)c1NC(=S)NC1CC1c1ccc(-c2ncn(-c3ccc(OC(F)(F)F)cc3)n2)cc1 (centres unmarked) [Compound 12, 1-(2,6-Dimethylphenyl)-3-(2-(4-(1-(4-(trifluoromethoxy)phenyl)-1H-1,2,4-triazol-3-yl)phenyl)cyclopropyl)thiourea] | 0 to 80 | 50 to 100 | 50 to 100 | – | – | –
O=C(NC1CC1c1ccc(-c2ncn(-c3ccc(OC(F)(F)F)cc3)n2)cc1)Oc1c(Cl)cccc1Cl (centres unmarked) [Compound 28, 2,6-Dichlorophenyl 2-(4-(1-(4-(trifluoromethoxy)phenyl)-1H-1,2,4-triazol-3-yl)phenyl)-cyclopropylcarbamate] | – | – | – | 0 to 80 | 0 | 0
FC(F)(F)Oc1ccc(-n2cnc(-c3ccc(C4CC4NC(=S)Nc4ccccc4Cl)cc3)n2)cc1 (centres unmarked) [Compound 5, 1-(2-Chlorophenyl)-3-(2-{4-[1-(4-trifluoromethoxyphenyl)-1H-[1,2,4]triazol-3-yl]phenyl}cyclopropyl)thiourea] | 0 | 50 to 100 | 50 to 100 | – | – | –
Cc1cc(Cl)ccc1NC(=S)NC1CC1c1ccc(-c2ncn(-c3ccc(OC(F)(F)F)cc3)n2)cc1 (centres unmarked) [Compound 4, 1-(4-Chloro-2-methylphenyl)-3-(2-{4-[1-(4-trifluoromethoxyphenyl)-1H-[1,2,4]triazol-3-yl]phenyl}cyclopropyl)thiourea] | 0 | 50 to 100 | 50 to 100 | – | – | –
COc1ccc(NC(=S)NC2CC2c2ccc(-c3ncn(-c4ccc(OC(F)(F)F)cc4)n3)cc2)c(C(C)C)c1 (centres unmarked) [Compound 13, 1-(2-Isopropyl-4-methoxyphenyl)-3-(2-(4-(1-(4-(trifluoromethoxy)phenyl)-1H-1,2,4-triazol-3-yl)phenyl)cyclopropyl)thiourea] | 0 | 50 to 100 | 50 to 100 | – | – | –
CC(OC(=O)NC1CC1c1ccc(-c2ncn(-c3ccc(OC(F)(F)F)cc3)n2)cc1)c1ccccc1 (centres unmarked) [Compound 19, 1-Phenylethyl 2-(4-(1-(4-(trifluoromethoxy)phenyl)-1H-1,2,4-triazol-3-yl)phenyl)-cyclopropylcarbamate] | – | – | – | 0 to 80 | 0 | 50 to 100
CC(OC(=O)NC1CC1c1ccc(-c2ncn(-c3ccc(OC(F)(F)F)cc3)n2)cc1)c1ccccn1 (centres unmarked) [Compound 20, 1-(Pyridin-2-yl)ethyl 2-(4-(1-(4-(trifluoromethoxy)phenyl)-1H-1,2,4-triazol-3-yl)phenyl)-cyclopropylcarbamate] | – | – | – | 0 to 80 | 50 to 100 | 50 to 100
O=C(NC1CC1c1ccc(-c2ncn(-c3ccc(OC(F)(F)F)cc3)n2)cc1)Oc1ccccc1C1CCCC1 (centres unmarked) [Compound 23, 2-Cyclopentylphenyl 2-(4-(1-(4-(trifluoromethoxy)phenyl)-1H-1,2,4-triazol-3-yl)phenyl)-cyclopropylcarbamate] | – | – | – | 0 to 80 | 0 | 50 to 100
Cc1cc(C)c(NC(=O)NC2CC2c2ccc(-c3ncn(-c4ccc(OC(F)(F)F)cc4)n3)cc2)c(C)c1 (centres unmarked) [Compound 30, 1-Mesityl-3-(2-(4-(1-(4-(trifluoromethoxy)phenyl)-1H-1,2,4-triazol-3-yl)phenyl)-cyclopropyl)urea] | 0 to 80 | 0 | 0 | – | – | –
O=C(NC1CC1c1ccc(-c2ncn(-c3ccc(OC(F)(F)F)cc3)n2)cc1)NC1CC1c1ccc(-c2ncn(-c3ccc(OC(F)(F)F)cc3)n2)cc1 (centres unmarked) [Compound 32, 1,3-bis(2-(4-(1-(4-(trifluoromethoxy)phenyl)-1H-1,2,4-triazol-3-yl)phenyl)cyclopropyl)urea] | 0 to 80 | 0 | 50 to 100 | – | – | –
CC(C)(C)OC(=O)NC1CC1c1ccc(-c2ncn(-c3ccc(OC(F)(F)F)cc3)n2)cc1 (centres unmarked) [Compound 17, tert-Butyl 2-(4-(1-(4-(trifluoromethoxy)phenyl)-1H-1,2,4-triazol-3-yl)phenyl)-cyclopropylcarbamate] | 0 | 50 to 100 | 50 to 100 | – | – | –
COc1ccc(NC(=S)NC2CC2c2ccc(-c3ncn(-c4ccc(OC(F)(F)F)cc4)n3)cc2)c(OC)c1 (centres unmarked) [Compound 10, 1-(2,4-Dimethoxyphenyl)-3-(2-{4-[1-(4-trifluoromethoxyphenyl)-1H-[1,2,4]triazol-3-yl]phenyl}cyclopropyl)thiourea] | 0 to 80 | 50 to 100 | 50 to 100 | – | – | –
Cc1cccc(C)c1/N=C(/NC1CC1c1ccc(-c2ncn(-c3ccc(OC(F)(F)F)cc3)n2)cc1)SCOC(=O)C(C)C (centres unmarked) [Compound 15, (Z)-(N′-(2,6-dimethylphenyl)-N-(2-(4-(1-(4-(trifluoromethoxy)phenyl)-1H-1,2,4-triazol-3-yl)phenyl)cyclopropyl)-carbamimidoylthio)methyl isobutyrate] | 0 to 80 | – | – | – | – | –
Cc1cc(C)c(/N=C(/NC2CC2c2ccc(-c3ncn(-c4ccc(OC(F)(F)F)cc4)n3)cc2)SCOC(=O)C(C)C)c(C)c1 (centres unmarked) [Compound 16, (Z)-(N′-Mesityl-N-(2-(4-(1-(4-(trifluoromethoxy)phenyl)-1H-1,2,4-triazol-3-yl)phenyl)cyclopropyl)carbamimidoylthio)methyl isobutyrate] | 0 | – | – | – | – | –
Cc1cc(C)c(NC(=S)NC2CC2c2ccc(-c3ncn(-c4ccc(OC(F)(F)F)cc4)n3)cc2)c(C)c1 (centres unmarked) [Compound 9, 1-(2-{4-[1-(4-Trifluoromethoxyphenyl)-1H-[1,2,4]triazol-3-yl]phenyl}-cyclopropyl)-3-(2,4,6-trimethylphenyl)thiourea] | 0 | 50 to 100 | 50 to 100 | – | – | –
FC(F)(F)Oc1ccc(-n2cnc(-c3ccc(C4CC4NC(=S)Nc4c(Cl)cccc4Cl)cc3)n2)cc1 (centres unmarked) [Compound 2, 1-(2,6-Dichlorophenyl)-3-(2-{4-[1-(4-trifluoromethoxyphenyl)-1H-[1,2,4]triazol-3-yl]phenyl}cyclopropyl)thiourea] | 0 to 80 | 50 to 100 | 50 to 100 | – | – | –
CC(C)c1ccccc1OC(=O)NC1CC1c1ccc(-c2ncn(-c3ccc(OC(F)(F)F)cc3)n2)cc1 (centres unmarked) [Compound 29, 2-Isopropylphenyl 2-(4-(1-(4-(trifluoromethoxy)phenyl)-1H-1,2,4-triazol-3-yl)phenyl)-cyclopropylcarbamate] | – | – | – | 0 | 50 to 100 | 50 to 100
